Measurements: patent US7057052B2, “Heterocyclic quinones as pharmaceutical agents” (Duke University, priority 2002, dated 2006)

Biological target: T1, Cdc25B (Homo sapiens, UniProt P30305)
T1 sequence (P30305 1-580): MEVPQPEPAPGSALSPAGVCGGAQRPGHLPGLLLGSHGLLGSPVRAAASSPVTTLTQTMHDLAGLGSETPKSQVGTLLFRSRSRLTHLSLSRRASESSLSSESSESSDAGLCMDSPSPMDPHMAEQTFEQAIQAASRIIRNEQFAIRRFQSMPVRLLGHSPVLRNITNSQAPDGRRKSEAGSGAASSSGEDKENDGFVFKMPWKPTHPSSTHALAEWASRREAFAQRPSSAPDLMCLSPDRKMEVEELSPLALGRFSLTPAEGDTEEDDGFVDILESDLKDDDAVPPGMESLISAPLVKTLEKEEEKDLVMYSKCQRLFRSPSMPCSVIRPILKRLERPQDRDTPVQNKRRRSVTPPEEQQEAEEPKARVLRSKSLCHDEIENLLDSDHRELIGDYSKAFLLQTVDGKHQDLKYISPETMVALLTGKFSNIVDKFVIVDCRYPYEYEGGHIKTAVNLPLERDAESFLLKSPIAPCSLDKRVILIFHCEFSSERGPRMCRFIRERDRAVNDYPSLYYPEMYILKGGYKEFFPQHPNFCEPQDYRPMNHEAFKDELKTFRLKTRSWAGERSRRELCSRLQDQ
Assay: Cdc25B phosphatase inhibition (50 μM screen, 3 pt. and 8 pt. IC-50)
Assay type: biochemical
Settings: Cdc25B; 3 pt. IC-50 using 1, 7 and 50 μM; read-out: IC50 (3 pt)
Procedure: Using procedures known to those skilled in the art, the compounds listed in Table 3 were screened against Cdc25A, Cdc25B, and Cdc25C at 50 μM. […] To analyze these effects further, the compounds were then screened against Cdc25B in a 3 pt. IC-50, using 1, 7 and 50 μM. Several of the compounds were also screened with an 8 pt. IC-50 process, using 0.1–10 μM, allowing determination of Hill slopes.

IC50 [µM] | SMILES
5.8 | CC(C)(C)c1[nH]c2ccccc2c1C1=C(Cl)C(=O)C(c2c[nH]c3c(C(C)(C)C)cccc23)=C(O)C1=O [8D, 2-(2-tert-butyl-1H-indol-3-yl)-5-(7-tert-butyl-1H-indol-3-yl)-3-chloro-6-hydroxy-[1,4]-benzoquinone]
0.9 | C=CC(C)(C)c1[nH]c2ccccc2c1C1=C(O)C(=O)C(c2c[nH]c3c(CC=C(C)C)cccc23)=C(O)C1=O [8E, DAQ-B1, reference compound]
11.2 | CC(C)(C)c1[nH]c2ccccc2c1C1=C(O)C(=O)C(c2c[nH]c3ccccc23)=C(O)C1=O [8F, 2-(2-tert-butyl-1H-indol-3-yl)-3,6-dihydroxy-5-(1H-indol-3-yl)-[1,4]-benzoquinone]
12 | Cn1cc(C2=C(O)C(=O)C(c3c(C(C)(C)C)[nH]c4ccccc34)=C(O)C2=O)c2ccccc21 [8G, 2-(2-tert-butyl-1H-indol-3-yl)-3,6-dihydroxy-5-(1-methyl-1H-indol-3-yl)-[1,4]-benzoquinone]
5.8 | Cc1[nH]c2ccccc2c1C1=C(O)C(=O)C(c2c(C(C)(C)C)[nH]c3ccccc23)=C(O)C1=O [8H, 2-(2-tert-butyl-1H-indol-3-yl)-3,6-dihydroxy-5-(2-methyl-1H-indol-3-yl)-[1,4]-benzoquinone]
5.6 | CC(C)(C)c1[nH]c2ccccc2c1C1=C(O)C(=O)C(c2c(C3CC3)[nH]c3ccccc23)=C(O)C1=O [9A, 2-(2-tert-butyl-1H-indol-3-yl)-3,6-dihydroxy-5-(2-cyclopropyl-1H-indol-3-yl)-[1,4]-benzoquinone]
5 | CC(C)c1[nH]c2ccccc2c1C1=C(O)C(=O)C(c2c(C(C)(C)C)[nH]c3ccccc23)=C(O)C1=O [9B, 2-(2-tert-butyl-1H-indol-3-yl)-3,6-dihydroxy-5-(2-isopropyl-1H-indol-3-yl)-[1,4]-benzoquinone]
5.1 | CC(C)(C)c1[nH]c2ccccc2c1C1=C(O)C(=O)C(c2c(C(C)(C)C)[nH]c3ccccc23)=C(O)C1=O [9C, 2-(2-tert-butyl-1H-indol-3-yl)-3,6-dihydroxy-5-(2-tert-butyl-1H-indol-3-yl)-[1,4]-benzoquinone]
6.1 | CC(C)(C)c1[nH]c2ccccc2c1C1=C(O)C(=O)C(c2c(-c3ccccc3)[nH]c3ccccc23)=C(O)C1=O [9D, 2-(2-tert-butyl-1H-indol-3-yl)-3,6-dihydroxy-5-(2-phenyl-1H-indol-3-yl)-[1,4]-benzoquinone]
13.7 | COc1cccc2[nH]cc(C3=C(O)C(=O)C(c4c(C(C)(C)C)[nH]c5ccccc45)=C(O)C3=O)c12 [9E, 2-(2-tert-butyl-1H-indol-3-yl)-3,6-dihydroxy-5-(4-methoxy-1H-indol-3-yl)-[1,4]-benzoquinone]
2.3 | CC(C)(C)c1[nH]c2ccccc2c1C1=C(O)C(=O)C(c2c[nH]c3cccc(OCc4ccccc4)c23)=C(O)C1=O [9F, 2-(2-tert-butyl-1H-indol-3-yl)-3,6-dihydroxy-5-(4-benzyloxy-1H-indol-3-yl)-[1,4]-benzoquinone]
8.7 | CC(C)(C)c1[nH]c2ccccc2c1C1=C(O)C(=O)C(c2c[nH]c3ccc(F)cc23)=C(O)C1=O [9G, 2-(2-tert-butyl-1H-indol-3-yl)-3,6-dihydroxy-5-(5-fluoro-1H-indol-3-yl)-[1,4]-benzoquinone]
80.3 | COc1ccc2[nH]cc(C3=C(O)C(=O)C(c4c(C(C)(C)C)[nH]c5ccccc45)=C(O)C3=O)c2c1 [9H, 2-(2-tert-butyl-1H-indol-3-yl)-3,6-dihydroxy-5-(5-methoxyl-1H-indol-3-yl)-[1,4]-benzoquinone]
0.6 | CC(C)(C)c1[nH]c2ccccc2c1C1=C(O)C(=O)C(c2c[nH]c3ccc(OCc4ccccc4)cc23)=C(O)C1=O [10A, 2-(2-tert-butyl-1H-indol-3-yl)-3,6-dihydroxy-5-(5-benzyloxy-1H-indol-3-yl)-[1,4]-benzoquinone]
7.2 | Cc1ccc2[nH]cc(C3=C(O)C(=O)C(c4c(C(C)(C)C)[nH]c5ccccc45)=C(O)C3=O)c2c1 [10B, 2-(2-tert-butyl-1H-indol-3-yl)-3,6-dihydroxy-5-(5-methyl-1H-indol-3-yl)-[1,4]-benzoquinone]
5.3 | CC(C)(C)c1[nH]c2ccccc2c1C1=C(O)C(=O)C(c2c[nH]c3cc(F)ccc23)=C(O)C1=O [10C, 2-(2-tert-butyl-1H-indol-3-yl)-3,6-dihydroxy-5-(6-fluoro-1H-indol-3-yl)-[1,4]-benzoquinone]
5.3 | Cc1ccc2c(C3=C(O)C(=O)C(c4c(C(C)(C)C)[nH]c5ccccc45)=C(O)C3=O)c[nH]c2c1 [10D, 2-(2-tert-butyl-1H-indol-3-yl)-3,6-dihydroxy-5-(6-methyl-1H-indol-3-yl)-[1,4]-benzoquinone]
4.8 | Cc1cccc2c(C3=C(O)C(=O)C(c4c(C(C)(C)C)[nH]c5ccccc45)=C(O)C3=O)c[nH]c12 [10E, 2-(2-tert-butyl-1H-indol-3-yl)-3,6-dihydroxy-5-(7-methyl-1H-indol-3-yl)-[1,4]-benzoquinone]
0.9 | CC(C)(C)c1[nH]c2ccccc2c1C1=C(O)C(=O)C(c2c[nH]c3c(C(C)(C)C)cccc23)=C(O)C1=O [10F, 2-(2-tert-butyl-1H-indol-3-yl)-3,6-dihydroxy-5-(7-tert-butyl-1H-indol-3-yl)-[1,4]-benzoquinone]
14.6 | Cc1ccc2[nH]c(C)c(C3=C(O)C(=O)C(c4c(C(C)(C)C)[nH]c5ccccc45)=C(O)C3=O)c2c1 [10G, 2-(2-tert-butyl-1H-indol-3-yl)-3,6-dihydroxy-5-(2,5-dimethyl-1H-indol-3-yl)-[1,4]-benzoquinone]
11.5 | COc1ccc2[nH]c(C)c(C3=C(O)C(=O)C(c4c(C(C)(C)C)[nH]c5ccccc45)=C(O)C3=O)c2c1 [10H, 2-(2-tert-butyl-1H-indol-3-yl)-3,6-dihydroxy-5-(2-methyl-5-methoxy-1H-indol-3-yl)-[1,4]-benzoquinone]
8.4 | Cc1[nH]c2ccc(Cl)cc2c1C1=C(O)C(=O)C(c2c(C(C)(C)C)[nH]c3ccccc23)=C(O)C1=O [11A, 2-(2-tert-butyl-1H-indol-3-yl)-3,6-dihydroxy-5-(2-methyl-5-chloro-1H-indol-3-yl)-[1,4]-benzoquinone]
7.9 | Cn1cc(C2=C(O)C(=O)C(c3ccccc3)=C(O)C2=O)c2ccccc21 [11B, 2,5-dihydroxy-3-(1-methyl-1H-indol-3-yl)-6-phenyl-[1,4]-benzoquinone]
15.7 | Cc1[nH]c2ccccc2c1C1=C(O)C(=O)C(c2c(C)[nH]c3ccccc23)=C(O)C1=O [11C, 2,5-dihydroxy-3,6-bis(2-methyl-1H-indol-3-yl)l-[1,4]-benzoquinone]
22.9 | CC(C)(C)c1[nH]c2ccccc2c1C1=C(O)C(=O)C(c2c(C(C)(C)C)[nH]c3ccccc23)=C(Cl)C1=O [11E, 2,5-bis(2-tert-butyl-1H-indol-3-yl)-3-chloro-6-hydroxy-[1,4]-benzoquinone]
49.9 | CC(C)(C)c1[nH]c2ccccc2c1C1=C(Cl)C(=O)C(c2c[nH]c3ccccc23)=C(O)C1=O [11F, 2-(2-tert-butyl-1H-indol-3-yl)-5-(1H-indol-3-yl)-3-chloro-6-hydroxy-[1,4]-benzoquinone]
33.8 | Cc1cccc2c(C3=C(O)C(=O)C(c4c(C(C)(C)C)[nH]c5ccccc45)=C(Cl)C3=O)c[nH]c12 [11G, 2-(2-tert-butyl-1H-indol-3-yl)-5-(7-methyl-1H-indol-3-yl)-3-chloro-6-hydroxy-[1,4]-benzoquinone]
6.7 | CC(C)(C)c1[nH]c2ccccc2c1C1=C(Cl)C(=O)C(c2c(-c3ccccc3)[nH]c3ccccc23)=C(O)C1=O [11H, 2-(2-tert-butyl-1H-indol-3-yl)-5-(2-phenyl-1H-indol-3-yl)-3-chloro-6-hydroxy-[1,4]-benzoquinone]

SMILES | IC50 [µM]
Cc1[nH]c2ccccc2c1C1=C(O)C(=O)c2cccc(O)c2C1=O [11D, 2,5-dihydoxy-3-(2-methyl-1H-indol-3-yl)-[1,4]naphthoquinone] | 18
